Patent US5863540A, “Adhesion molecule” (Duke University, priority 1993, dated 1999)

How the values were obtained:
[1] = tested on: T cell receptor-mediated T cell activation; experiment: T cell receptor-mediated T cell activation (anti-CD3ε mab Leu 4) of PBMC, 3H-thymidine, CD44 peptides; type: cell-based, human
Experimental: Synthetic peptides were prepared by FMoc or TBoc chemistry, purified usin
HPLC, and resuspended in RPMI media prior to addition to 4 day in vitro
cultures. Following 4 days in culture, 3Hthymidine was added, and
following an incubation of 4 hours, the cultures were harvested using an
automated multiwell harvester using standard techiques.

[2] = tested on: CD2-Mediated T Cell Activation; experiment: T Cell Activation Assay: proliferation of PBMC stimulated with CD2 mabs 35.1 and 9-1; type: cell-based, human; conditions: soluble, free protein instead of liposomes, data not shown
Experimental: CD44 Liposomes. Liposomes were prepared by the method of Mimms et al. ((1981) Biochemistry 20:833-840), using 1 μM purified CD44 or control glycophorin protein, 1 nM L-α-dioleoyl lecthin (Avanti Polar Lipids, Birmingham, Ala.), and 240 nM OG. Liposomes were analyzed for content of the appropriate protein using a novel labelling technique and flow cytometry. Liposomes were incubated with 5-(N-octadecanoyl) aminofluorescein (Molecular Probes, Eugene, Oreg.) in PBS×10 min at room temperature. Fluoresceinated liposomes were then reacted with […] magnetic beads (Dynabeads M-450 Goat anti-Mouse IgG, Dynal Inc., Great Neck, N.Y.) coated with CD44 (A3D8) or anti-glycophorin (E3,E4,E5) mAbs. After 45 minutes (4° C.), with continuous end-over-end rotation, beads were washed ×3 in PBS using a magnet to immobilize the beads during PBS changes. Fluoresceinated liposome-bead conjugates were then analyzed by flow cytometry.
T Cell Activation Assay. PBMC from healthy donors were stimulated with optimal mitogenic concentration of CD2 mabs 35.1 and 9-1 as described (Denning et al.). Where indicated, CD44 or control glycophorin liposomes (final protein range used was 28-140 nM) were added to these cultures 20 min prior to addition of CD2 mabs. […]

Substance | effect on T cell activation (in words) ([1]; 1 mg/ml peptide, anti-CD3 triggered PBMC cultures) | % Inhibition ([1]; peptide 1 mg/ml, Leu 4 1:1000, 4 day culture) [%] | Δ CPM 3H-Thymidine/106 Cells in Culture ([1]; peptide 1 mg/ml, Leu 4 1:1000, 4 day culture, control 199,816) | effect on CD2 stimulated PBMC culture [2]
(C)NRNDVTGGRRDPNHSEGS (CNRNDVTGGRRDPNHSEGS; N-terminal Cys) [CD44-19A] | inhibition of T cell activation | 75 | 50,318 Δ CPM 3H-Thymidine/106 Cells | –
soluble, free CD44 protein: CD44 protein affinity-purified on A3D8-Sepharose from HuT 78 T cell lysate, single band at 80-85 kD | – | – | – | Identical results
